Results filed as inconclusive are left out. Calls of active or inactive are those of the source.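 Rule for the calls: active = compound lowering the normal-ribosome reporter at least twice as much as the humanized-ribosome reporter, growth loss under a set limit; inconclusive = no clear call, values can overlap the other calls; inactive = the rest.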
Assays:
[1] = system: E. coli mixed WT/h24 culture total growth, OD600, 24 h; assay: E. coli growth inhibition, wild-type GFP versus h24 humanized RFP strain, dose response, h24 mutant RFP vs wild-type GFP, cherry-pick (AID 977628)
[2] = system: E. coli WT GFP strain growth, fluorescence, 24 h; assay: as above

Structure (SMILES) | AC50 [1] [µM] | AC50 [2]
COc1ccc2c(c1)-c1nc(N)sc1CC2 | > 100 | 
CCOC(=O)c1cc(-c2ccc(OC)cc2)n[nH]1 | > 100 | 
O=S(=O)(Nc1ccccc1N1CCCCC1)c1cccs1 | > 100 | 
O=C(Nc1ccc(F)c(Cl)c1)C1CC2CCC1C2 (configuration not stated) | > 100 | 
COc1ccc(-c2csc(NC(=O)c3ccoc3C)n2)cc1 | > 100 | 
CN(CC(=O)Nc1ccc(F)cc1)C(=O)COc1ccc([N+](=O)[O-])cc1Cl | > 100 | 
COc1ccccc1N1CCN(Cc2ccc(OC)c3ccccc23)CC1 | > 100 | 
CCC(C(=O)Nc1ccsc1C(=O)OC)c1ccccc1 (configuration not stated) | > 100 | 
COc1ccccc1-c1noc2ncnc(Nc3ccccc3C)c12 | > 100 | 
CCOC(=O)Cc1nnc(NC(=O)CSc2nc3ccccc3[nH]2)s1 | > 100 | 
OCCN(Cc1ccccc1)Cc1ccc(F)c(F)c1 | > 100 | 
Nc1ccc2nc(-c3ccc(Cl)cc3)[nH]c2c1 | > 100 | 
Cc1ccccc1SCC(=O)OCC(=O)Nc1sccc1C(N)=O | > 100 | 
CC(=O)NCCOc1nc(N2CCCCC2)nc(N2CCCCC2)n1 | > 100 | 
COc1ccc(NC(=O)c2cccs2)cc1C(=O)N1CCN(c2ccccc2)CC1 | > 100 | 
CC(C)Oc1nc(-c2ccccc2Cl)nc2ccccc12 | > 100 | 
c1ccc(Cc2nc3ccccc3s2)cc1 | > 100 | 
CCCCc1cc2c(cc1NC(=O)CN1CCCCC1)OCCO2 | > 100 | 
Cc1ccnc(NS(=O)(=O)c2ccc(NC(=O)c3ccc4c(c3)OCCO4)cc2)n1 | > 100 | 
COc1ccc(NC(=O)Nc2cccc3c2O[C@H](CN(C)S(=O)(=O)c2ccc(Cl)cc2)[C@@H](C)CN([C@@H](C)CO)C3=O)cc1 | > 100 | 
COc1ccc(C(=O)NCCC2=CCCCC2)cc1[N+](=O)[O-] | > 100 | 
Cc1ccc(S(=O)(=O)NC(C)C(=O)NCc2ccc(Cl)cc2)cc1 (configuration not stated) | > 100 | 
Cn1cc(CN(CCO)Cc2cccs2)c(-c2cccc(Cl)c2)n1 | > 100 | 

Structure (SMILES) | AC50 [1] [µM] | AC50 [2]
CC(C)(C)CC(=O)Nc1ccccc1N1CCN(c2ccccc2)CC1 | > 100 | 
O=C(Nc1nc2ccccc2n1CCN1CCOCC1)c1ccccc1 | > 100 | 
COc1cc2c(cc1OC)CN(CC(=O)Nc1ccccc1SC)CC2 | > 100 | 
CC(=O)c1ccc(OCC(=O)Nc2ccc3c(c2)CCC3)cc1 | > 100 | 
O=S1(=O)N[C@H](Cc2ccccc2)COc2cc(N3CCSCC3)ccc21 | > 100 | 
COC(=O)CNC(=O)COC(=O)c1ccc(Cl)nc1 | > 100 | 
Cc1nn2c(NCc3ccccn3)cc(C(C)C)nc2c1-c1ccccc1 | > 100 | 
Cc1ccc(S(=O)(=O)NCc2c(-c3ccccc3)noc2C)cc1 | > 100 | 
CC1CCCC(NC(=O)COC(=O)Cc2c[nH]c3ccccc23)C1C (configuration not stated) | > 100 | 
O=C1OCCC1Sc1nc2ccccc2c(=O)n1Cc1ccccc1 (configuration not stated) | > 100 | 
O=C(COC(=O)CCC(=O)c1ccc(F)cc1)Nc1cccc(S(=O)(=O)N2CCCC2)c1 | > 100 | 
Cc1cccc(N2CCN(Cc3nc(-c4ccc(F)cc4F)oc3C)CC2)n1 | > 100 | 
O=C(NCc1ccc2c(c1)OCO2)c1sccc1Br | > 100 | 
COc1ccc(C(=O)C[n+]2ccc3c(c2)nc(-c2cc(OC)c(OC)cc2OC)n3C)cc1 | > 100 | 
CNC(=O)c1ccsc1NC(=O)c1ccc(S(=O)(=O)N2CCc3ccccc32)cc1 | > 100 | 
CCN(CC)S(=O)(=O)c1ccc(N2CCCC2)c(NC(=O)c2ccccc2OC)c1 | > 100 | 
Cc1cccc(NC(=O)c2c(C)nn(-c3ccccc3)c2Cl)c1 | > 100 | 
Cc1ccc(C2NC(c3ccc(C)cc3)C(C)C(=O)C2C)cc1 (configuration not stated) | > 100 | 
CN(C)CCNc1ncnc2c1sc1nc(N3CCCC3)c3c(c12)CC(C)(C)OC3 | > 100 | 
Cc1ccn2cc(-c3cccc(NC(=O)c4cccs4)c3)nc2c1 | > 100 | 
CC(NC(=O)C12CC3CC(C)(CC(C)(C3)C1)C2)c1ccncc1 (configuration not stated) | > 100 | 
COc1cccc(NC(=O)COC(=O)Cc2ccc(Br)cc2)c1 | > 100 | 
CS(=O)(=O)Nc1ccccc1C(=O)NCCSc1ccccc1 | > 100 | 

Structure (SMILES) | AC50 [1] [µM] | AC50 [2]
COc1cc(OC)c(NS(=O)(=O)c2cccc(C(=O)OCC(=O)NCC3CCCO3)c2)cc1Cl (configuration not stated) | > 100 | 
COC(=O)c1cc2c(c3c4cc(F)ccc4n(S(=O)(=O)c4cccc(C)c4)c13)C(=O)N(Cc1ccco1)C2 | > 100 | 
COC(=O)c1cc(S(=O)(=O)NCc2ccc3c(c2)OCO3)cn1C | > 100 | 
CN1CCN(CC(=O)c2cc(C(C)(C)C)c(O)c(C(C)(C)C)c2)CC1 | > 100 | 
COc1ccc(/C=C/c2nc3ccccc3n2Cc2ccccc2OC)cc1 | > 100 | 
COc1ccc(C(CC(=O)c2ccc(O)cc2)S(=O)(=O)c2ccc(C)cc2)cc1 (configuration not stated) | > 100 | 
Cc1cc(C)c(OCC(=O)OCC(=O)N2CCc3ccccc3C2)c(C)c1 | > 100 | 
COc1cccc(OC)c1CNC(=O)CCSCc1ccccc1F | > 100 | 
Cc1cc(C(C)(C)C)oc1C(=O)N(CC(=O)NC1CCCC1)c1c(C)cccc1C | > 100 | 
Cc1ccc(Cc2c(-c3cccc(Br)c3)nc3ccc(C)cn23)cc1 | > 100 | 
S=c1nc(-c2cccc(Br)c2)[nH][nH]1 | > 100 | 
Cc1n[nH]c(C)c1S(=O)(=O)N1CCCC(C(=O)Nc2ccc(Br)cc2)C1 (configuration not stated) | > 100 | 
COc1ccc(CC(=O)Oc2ccc(C)cc2C)cc1 | > 100 | 
C[C@@H]1CN([C@@H](C)CO)C(=O)c2cc(NC(=O)C3CC3)ccc2O[C@H]1CN(C)C(=O)Nc1ccc(C(F)(F)F)cc1 | > 100 | 
Cc1ccc(NC(=O)c2ccc([N+](=O)[O-])s2)cc1S(=O)(=O)N1CCOCC1 | > 100 | 
CCCNc1ccc(C(=O)OCC)cc1[N+](=O)[O-] | > 100 | 
O=C(CN1CCCCC1)n1c2ccccc2c2ccccc21 | > 100 | 
Brc1ccccc1Cn1c(-c2cncs2)nc2ccccc21 | > 100 | 
CCN(C(=O)COC(=O)CCc1ccccc1)c1ccccc1 | > 100 | 
COc1cc2ccccc2cc1C(=O)NCC(c1cccs1)N(C)C (configuration not stated) | > 100 | 
Cc1ccc(NC(=O)C2CCN(S(=O)(=O)c3ccc4c(c3)NC(=O)CO4)CC2)cc1 | > 100 | 
O=C(CSCc1c(Cl)cccc1Cl)NCc1ccccn1 | > 100 | 
CC1CCC2(CC1)SCC(=O)N2c1ccc(F)cc1 (configuration not stated) | > 100 | 

Structure (SMILES) | AC50 [1] [µM] | AC50 [2]
CCOC(=O)CN1C(=O)C(CC)Oc2ccc(Cl)cc21 (configuration not stated) | > 100 | 
CN1OC[C@@H]2CN(C(=O)c3ccco3)[C@H](c3ccc(-c4ccc(C#N)cc4)cc3)C[C@@H]21 | > 100 | 
Cc1ccc(OCCCC(=O)NC(C)c2ccccc2)c(C)c1 (configuration not stated) | > 100 | 
O=S(=O)(NOCc1ccc(Cl)cc1)c1ccc(Cl)cc1 | > 100 | 
Cc1ccc(S(=O)(=O)N2CCCCC2C(=O)N2CCN(c3ccccc3F)CC2)cc1 (configuration not stated) | > 100 | 
CCOCCCNC(=O)C(NC(=O)c1ccccc1O)c1ccc(C)cc1 (configuration not stated) | > 100 | 
CN(C)S(=O)(=O)c1ccc(Cl)c(C(=O)OCC(=O)NC(=O)c2cccn2C)c1 | > 100 | 
Cc1cccc(C)c1NC(=O)CNC(=O)C(C)N1CCN(c2cccc(Cl)c2)CC1 (configuration not stated) | > 100 | 
CCN(CC)c1nc(Oc2ccc(C(=O)OC)cc2)nc(N2CCOCC2)n1 | > 100 | 
O=C1OC[C@@H]2CCCN2C(=O)[C@@H](CC(=O)N(CCO)Cc2ccccc2)C/C=C\C[C@H]1Cc1ccc(F)cc1 | > 100 | 
CC(=O)c1ccc(Sc2ccccc2N)c([N+](=O)[O-])c1 | > 100 | 
O=C(Nc1ccccc1N1CCOCC1)C1CCCCN1S(=O)(=O)c1ccccc1 (configuration not stated) | > 100 | 
Nc1ccccc1Sc1c[nH]c2ccccc12 | > 100 | 
CCOc1ccc(C(C)=O)cc1CN1C(=O)NC2(CCCCCCC2)C1=O | > 100 | 
COc1ccc(CNC(=O)c2nc(S(=O)(=O)Cc3ccccc3)ncc2Cl)cc1 | > 100 | 
O=C(NC1CCCCC1)C(c1cccc2ccccc12)n1c(=O)c(-c2ccco2)nc2ccccc21 (configuration not stated) | > 100 | 
COCc1c(C#N)c(NCCc2ccc(F)cc2)nc(C)c1[N+](=O)[O-] | > 100 | 
CCN(CC)CC(=O)Nc1sc2c(c1C(=O)c1ccccc1OC)CCC2 | > 100 | 
CC1CCCC(NC(=O)COC(=O)[C@@H]2CC(O)CN2S(=O)(=O)c2ccc3c(c2)OCCO3)C1C (some centres not stated) | > 100 | 
Cc1ccsc1C(=O)C1CCCN(Cc2cc(F)ccc2-n2cccn2)C1 (configuration not stated) | > 100 | 
O=C(c1sc2ccccc2c1Cl)N1CCC2(CC1)OCCO2 | > 100 | 
Cc1cc(C)c(OCCN(C)Cc2ccccc2)c(Br)c1 | > 100 | 
Fc1ccc(Br)cc1SCCc1ccncc1 | > 100 | 

Structure (SMILES) | AC50 [1] [µM] | AC50 [2]
O=C1c2ccccc2CSc2c(O)cccc21 | > 100 | 
CN(Cc1nnc(-c2ccc(F)cc2)o1)c1ccccc1 | > 100 | 
COc1ccc(CSc2nc3ccccc3c(=O)n2CCCN2CCOCC2)cc1F | > 100 | 
CCCn1c(C(C)Nc2nc(-c3ccc(C)cc3)cs2)nc2ccccc21 (configuration not stated) | > 100 | 
CN(C)CCCNc1ccc(-c2cc(Nc3cccc(Cl)c3)ncn2)cn1 |  | > 100 µM (inactive)
Cc1ccccc1-n1ncc2c1CC(C)(C)CC2NC(=O)CCN1Cc2ccccc2C1=O (configuration not stated) |  | > 100 µM (inactive)
O=C(O)c1ccccc1Nc1cc(Cl)c2nonc2c1[N+](=O)[O-] |  | > 100 µM (inactive)
Cc1ccsc1C(=O)OCC(=O)N1CCc2ccccc2C1 |  | > 100 µM (inactive)
Cc1sc(NC(=O)CN2CCOCC2)nc1-c1ccc2c(c1)CCN2S(=O)(=O)c1ccccc1 |  | > 100 µM (inactive)
O=S(=O)(c1ccc(Cl)cc1)N1CCN=C1SCc1cccc(Cl)c1 |  | > 100 µM (inactive)
CC(C)=C(c1ccc(Cl)cc1)c1c(N)ncnc1N |  | > 100 µM (inactive)
O=C(Nc1ccc(S(=O)(=O)N2CCCC2)cc1)c1ccc(OCC2CCCO2)cc1 (configuration not stated) |  | > 100 µM (inactive)
CC(CCC(=O)O)C1CC[C@@]2(C)C3C(=O)CC4C(C)(C)C(O)CC[C@]4(C)C3C(=O)C[C@]12C (some centres not stated) |  | > 100 µM (inactive)
CC1=Nc2cc(C(=O)NCC3CCCO3)ccc2Sc2ccc(Br)cc21 (configuration not stated) |  | > 100 µM (inactive)
O=C(Cc1coc2ccc3ccccc3c12)NCc1ccccc1 |  | > 100 µM (inactive)
COc1cccc(NC(=O)C2CCC(CNS(=O)(=O)c3cccs3)CC2)c1 (configuration not stated) |  | > 100 µM (inactive)
COC(=O)c1ccc2nc(-c3cccc(Br)c3)c(Cc3ccsc3)n2c1 |  | > 100 µM (inactive)
CCc1ccc(OCC(=O)NCc2ccco2)c(Br)c1 |  | > 100 µM (inactive)
Nc1nc(=S)ss1 |  | > 100 µM (inactive)
CC1Sc2ccc(S(=O)(=O)NCc3ccccc3)cc2NC1=O (configuration not stated) |  | > 100 µM (inactive)
